# ChEMBL document CHEMBL1782050, “Discovery of new nanomolar peroxisome proliferator-activated receptor γ activators via elaborate ligand-based modeling” (Eur J Med Chem, 2011)
# Target: T1, Peroxisome proliferator-activated receptor gamma (Homo sapiens, UniProt P37231)
# T1 sequence (P37231 whole entry): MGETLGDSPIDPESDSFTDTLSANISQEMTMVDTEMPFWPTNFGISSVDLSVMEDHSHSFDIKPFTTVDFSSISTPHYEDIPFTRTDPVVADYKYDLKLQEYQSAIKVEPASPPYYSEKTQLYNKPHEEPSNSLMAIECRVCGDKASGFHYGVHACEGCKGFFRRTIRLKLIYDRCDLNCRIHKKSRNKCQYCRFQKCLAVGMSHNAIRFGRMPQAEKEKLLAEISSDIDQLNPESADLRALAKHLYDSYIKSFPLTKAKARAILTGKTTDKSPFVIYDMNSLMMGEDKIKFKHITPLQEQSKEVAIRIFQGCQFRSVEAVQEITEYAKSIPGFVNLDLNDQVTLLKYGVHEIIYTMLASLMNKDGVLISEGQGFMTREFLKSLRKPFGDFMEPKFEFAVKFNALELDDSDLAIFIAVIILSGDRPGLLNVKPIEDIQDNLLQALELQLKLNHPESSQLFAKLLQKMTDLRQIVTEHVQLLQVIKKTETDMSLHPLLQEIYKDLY
# Type: functional, cell-based, HepG2
# Description: Agonist activity at PPARgamma receptor expressed in human HepG2 cells by PPRE-luciferase reporter gene assay
row,EC50 [nM],Structure (SMILES)
1,15.3,Cc1ccc(S(=O)(=O)Oc2ccc(N(CC(=O)O)S(=O)(=O)c3ccc(C)cc3)cc2)cc1
2,224,COc1ccc(-c2nc(SCC(=O)O)n(-c3ccccn3)c2-c2ccc(OC)cc2)cc1
3,220000,COC1=C(OC)Cc2c(cc[n+]3c(CCC(=O)O)c4cc(OC)c(OC)cc4cc23)C1
